Experimental data taken from BindingDB's records for doi:10.1016/j.bmcl.2004.01.021 (Atherogenics, 2004).

Target: T1, Tumor necrosis factor receptor superfamily member 1A (Homo sapiens, UniProt P19438)
T1 sequence (P19438 whole entry): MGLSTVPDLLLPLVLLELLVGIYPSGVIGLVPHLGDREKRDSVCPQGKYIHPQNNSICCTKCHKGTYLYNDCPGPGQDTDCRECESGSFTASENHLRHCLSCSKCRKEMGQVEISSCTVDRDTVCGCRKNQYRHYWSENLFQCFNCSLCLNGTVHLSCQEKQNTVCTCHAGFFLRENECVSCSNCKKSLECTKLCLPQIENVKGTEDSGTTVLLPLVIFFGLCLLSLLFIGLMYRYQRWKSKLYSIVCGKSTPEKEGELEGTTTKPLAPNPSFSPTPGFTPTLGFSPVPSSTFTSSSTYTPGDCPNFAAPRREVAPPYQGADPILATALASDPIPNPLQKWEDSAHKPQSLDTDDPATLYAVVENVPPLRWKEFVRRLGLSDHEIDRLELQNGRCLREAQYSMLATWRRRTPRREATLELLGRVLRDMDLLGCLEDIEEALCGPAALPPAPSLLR
Assay: ChEBML_224214
Excerpt: Inhibition of TNF-alpha-induced VCAM-1 expression

SMILES | IC50 [µM]
COc1ccc(/C=C/C(=O)c2ccc(OC)cc2OC)cc1 [1-(2,4-Dimethoxy-phenyl)-3-(4-methoxy-phenyl)-propenone] | 7
COc1ccc(C(=O)/C=C/c2ccccc2)cc1 [1-(4-methoxyphenyl)-3-phenylprop-2-en-1-one (6)] | 14
COc1cc(OC)c(-c2cc3ccccc3s2)cc1/C=C/C(=O)c1ccc(OC(C)(C)C(=O)O)cc1 [2-{4-[(E)-3-(5-Benzo[b]thiophen-2-yl-2,4-dimethoxy-phenyl)-acryloyl]-phenoxy}-2-methyl-propionic acid] | 6
COc1cc(OC(C)(C)C(=O)O)c(/C=C/C(=O)c2ccc(C(F)(F)F)cc2)cc1-c1cccs1 [2-{5-Methoxy-2-[(E)-3-oxo-3-(4-trifluoromethyl-phenyl)-propenyl]-4-thiophen-2-yl-phenoxy}-2-methyl-propionic acid] | 4
COc1ccc(C(=O)/C=C/c2ccccc2)cc1OC [3',4'-dimethoxychalcone] | 8
COc1ccc(C(=O)/C=C/c2ccc(OC)cc2OC)cc1 [3-(2,4-Dimethoxy-phenyl)-1-(4-methoxy-phenyl)-propenone] | 29
COc1cc(OC)c(CCC(=O)c2cc(OC)c(OC)c(OC)c2)cc1Br [3-(5-Bromo-2,4-dimethoxy-phenyl)-1-(3,4,5-trimethoxy-phenyl)-propan-1-one] | > 50
COc1ccc(Br)cc1CCC(=O)c1cc(OC)c(OC)c(OC)c1 [3-(5-Bromo-2-methoxy-phenyl)-1-(3,4,5-trimethoxy-phenyl)-propan-1-one] | > 50
COc1cc(C(=O)/C=C/c2ccccc2)cc(OC)c1OC [3-phenyl-1-(3,4,5-trimethoxyphenyl)prop-2-en-1-one] | 6
CCOC(=O)c1ccc(COc2ccc(C(=O)/C=C/c3cc(-c4cccs4)ccc3OC)cc2OC)cc1 [4-{2-Methoxy-4-[(E)-3-(2-methoxy-5-thiophen-2-yl-phenyl)-acryloyl]-phenoxymethyl}-benzoic acid ethyl ester] | 4
COc1ccc(-c2cccs2)cc1/C=C/C(=O)c1ccc(OCc2ccc(C(=O)O)cc2)c(OC)c1 [4-{2-Methoxy-4-[(E)-3-(2-methoxy-5-thiophen-2-yl-phenyl)-acryloyl]-phenoxymethyl}-benzoic acid] | 5
COc1ccc(-c2cccs2)cc1C=CC(=O)c1ccc(OCc2ccc(NC(=O)OC(C)(C)C)cc2)c(OC)c1 [(4-{2-Methoxy-4-[(E)-3-(2-methoxy-5-thiophen-2-yl-phenyl)-acryloyl]-phenoxymethyl}-phenyl)-carbamic acid tert-butyl ester] | > 50
O=C(/C=C/c1ccc(F)cc1)c1ccc(F)cc1 [(E)-1,3-Bis-(4-fluoro-phenyl)-propenone] | 25
COc1cc(/C=C/C(=O)c2ccc3c(c2)OC(O)(O)O3)cc(-c2cccs2)c1OC [(E)-1-(2,2-Dihydroxy-benzo[1,3]dioxol-5-yl)-3-(3,4-dimethoxy-5-thiophen-2-yl-phenyl)-propenone] | 1
COc1ccc(OC)c(C(=O)/C=C/c2cc(-c3cccs3)ccc2OC)c1 [(E)-1-(2,5-Dimethoxy-phenyl)-3-(2-methoxy-5-thiophen-2-yl-phenyl)-propenone] | 2
COc1ccc(-c2cccs2)cc1/C=C/C(=O)c1c(OC)cccc1OC [(E)-1-(2,6-Dimethoxy-phenyl)-3-(2-methoxy-5-thiophen-2-yl-phenyl)-propenone] | 3
COc1ccc(/C=C/C(=O)c2ccc(OC)c(OC)c2)cc1 [(E)-1-(3',4'-Dimethoxyphenyl)-3-(4''-methoxyphenyl)prop-2-en-1-one] | 6
COc1cc(-c2cccc(C(C)=O)c2)ccc1C(=O)C=Cc1cc(OC)c(OC)c(OC)c1 [(E)-1-(3'-Acetyl-3-methoxy-biphenyl-4-yl)-3-(3,4,5-trimethoxy-phenyl)-propenone] | 4
COc1ccc(-c2cccs2)cc1/C=C/C(=O)c1ccc(OC)c(OC)c1 [(E)-1-(3,4-Dimethoxy-phenyl)-3-(2-methoxy-5-thiophen-2-yl-phenyl)-propenone] | 3
COc1ccc(C(=O)/C=C/c2ccc(-c3cccs3)cc2)cc1OC [(E)-1-(3,4-Dimethoxy-phenyl)-3-(4-thiophen-2-yl-phenyl)-propenone] | 12
COc1ccc(-c2cc(C)cs2)cc1/C=C/C(=O)c1ccc(OC)c(OC)c1 [(E)-1-(3,4-Dimethoxy-phenyl)-3-[2-methoxy-5-(4-methyl-thiophen-2-yl)-phenyl]-propenone] | 2
COc1ccc(-c2ccc(C)s2)cc1/C=C/C(=O)c1ccc(OC)c(OC)c1 [(E)-1-(3,4-Dimethoxy-phenyl)-3-[2-methoxy-5-(5-methyl-thiophen-2-yl)-phenyl]-propenone] | 2

SMILES | IC50 [µM]
COc1ccc(/C=C/C(=O)c2cc(C(C)(C)C)c(O)c(C(C)(C)C)c2)cc1 [(E)-1-(3,5-Di-tert-butyl-4-hydroxy-phenyl)-3-(4-methoxy-phenyl)-propenone] | > 50
CC(C)(C)c1cc(C(=O)/C=C/c2ccccc2)cc(C(C)(C)C)c1O [(E)-1-(3,5-Di-tert-butyl-4-hydroxy-phenyl)-3-phenyl-propenone] | 47
COc1ccc(/C=C/C(=O)c2cc(C(C)(C)C)c(OC)c(C(C)(C)C)c2)cc1 [(E)-1-(3,5-Di-tert-butyl-4-methoxy-phenyl)-3-(4-methoxy-phenyl)-propenone] | 17
COc1c(C(C)(C)C)cc(C(=O)/C=C/c2ccccc2)cc1C(C)(C)C [(E)-1-(3,5-Di-tert-butyl-4-methoxy-phenyl)-3-phenyl-propenone] | 9
COc1cc(OC)cc(C(=O)/C=C/c2cc(-c3cccs3)ccc2OC)c1 [(E)-1-(3,5-Dimethoxy-phenyl)-3-(2-methoxy-5-thiophen-2-yl-phenyl)-propenone] | 2
COc1ccc(-c2cc(C(=O)/C=C/c3cc(OC)c(OC)c(OC)c3)c(OC)cc2OC)c(OC)c1 [(E)-1-(4,6,2',4'-Tetramethoxy-biphenyl-3-yl)-3-(3,4,5-trimethoxy-phenyl)-propenone] | 3
COc1cc(/C=C/C(=O)c2cc(OC)c(OCc3ccccc3)c(OC)c2)cc(Br)c1OC [(E)-1-(4-Benzyloxy-3,5-dimethoxy-phenyl)-3-(3-bromo-4,5-dimethoxy-phenyl)-propenone] | > 50
O=C(/C=C/c1ccc(F)c(-c2cccs2)c1)c1ccc(F)cc1 [(E)-1-(4-Fluoro-phenyl)-3-(4-fluoro-3-thiophen-2-yl-phenyl)-propenone] | 4
COc1cc(C(=O)/C=C/c2cc(-c3cccs3)ccc2OC)ccc1O [(E)-1-(4-Hydroxy-3-methoxy-phenyl)-3-(2-methoxy-5-thiophen-2-yl-phenyl)-propenone] | 7
COc1ccc(C(=O)/C=C/c2cc(-c3cccs3)ccc2OC)cc1 [(E)-1-(4-Methoxy-phenyl)-3-(2-methoxy-5-thiophen-2-yl-phenyl)-propenone] | 3
COc1ccc(-c2cccs2)cc1/C=C/C(=O)c1ccc2c(c1)OCO2 [(E)-1-Benzo[1,3]dioxol-5-yl-3-(2-methoxy-5-thiophen-2-yl-phenyl)-propenone] | 4
COc1ccc(-c2cc(C)cs2)cc1/C=C/C(=O)c1ccc2c(c1)OCO2 [(E)-1-Benzo[1,3]dioxol-5-yl-3-[2-methoxy-5-(4-methyl-thiophen-2-yl)-phenyl]-propenone] | 4
COc1ccc(-c2ccc(C)s2)cc1/C=C/C(=O)c1ccc2c(c1)OCO2 [(E)-1-Benzo[1,3]dioxol-5-yl-3-[2-methoxy-5-(5-methyl-thiophen-2-yl)-phenyl]-propenone] | 3
COCCOc1c(OC)cc(C(=O)/C=C/c2cc(OC)c(OC)c(OC)c2)cc1OC [(E)-1-[3,5-Dimethoxy-4-(2-methoxy-ethoxy)-phenyl]-3-(3,4,5-trimethoxy-phenyl)-propenone] | 5
COc1cc(/C=C/C(=O)c2cc(OC)c(OCc3cc(OC)c(OC)c(OC)c3)c(OC)c2)cc(OC)c1OC [(E)-1-[3,5-Dimethoxy-4-(3,4,5-trimethoxy-benzyloxy)-phenyl]-3-(3,4,5-trimethoxy-phenyl)-propenone] | 3
COC1=C(c2c(OC)cc(C(=O)/C=C/c3cc(OC)c(OC)c(OC)c3)cc2OC)Oc2ccccc2O1 [(E)-1-[3,5-Dimethoxy-4-(3-methoxy-benzo[1,4]dioxin-2-yl)-phenyl]-3-(3,4,5-trimethoxy-phenyl)-propenone] | 2
COc1ccc(COc2c(OC)cc(C(=O)/C=C/c3cc(OC)c(OC)c(OC)c3)cc2OC)cc1 [(E)-1-[3,5-Dimethoxy-4-(4-methoxy-benzyloxy)-phenyl]-3-(3,4,5-trimethoxy-phenyl)-propenone] | 1
COc1cc(/C=C/C(=O)c2cc(OC)c(OCc3cccs3)c(OC)c2)cc(OC)c1OC [(E)-1-[3,5-Dimethoxy-4-(thiophen-2-ylmethoxy)-phenyl]-3-(3,4,5-trimethoxy-phenyl)-propenone] | 3
COC1=C(c2ccc(C(=O)/C=C/c3cc(OC)c(OC)c(OC)c3)cc2OC)Oc2ccccc2O1 [(E)-1-[3-Methoxy-4-(3-methoxy-benzo[1,4]dioxin-2-yl)-phenyl]-3-(3,4,5-trimethoxy-phenyl)-propenone] | 4
COc1ccc(-c2cccs2)cc1/C=C/C(=O)c1ccc(OCc2ccccn2)c(OC)c1 [(E)-1-[3-Methoxy-4-(pyridin-2-ylmethoxy)-phenyl]-3-(2-methoxy-5-thiophen-2-yl-phenyl)-propenone] | 3
COc1ccc(-c2cccs2)cc1/C=C/C(=O)c1ccc(OCc2cccnc2)c(OC)c1 [(E)-1-[3-Methoxy-4-(pyridin-3-ylmethoxy)-phenyl]-3-(2-methoxy-5-thiophen-2-yl-phenyl)-propenone] | 3
